Literature values as cited in paper PMC9516332 (Frontiers in Oncology, 2022).
Where two headings read alike, the source gives them in different places.

Experiments:
Details in all cases: cited from earlier work
[1] = target: T1, panel of 255 wild-type kinases (Homo sapiens, UniProt P15735)
T1 sequence (P15735 1-406): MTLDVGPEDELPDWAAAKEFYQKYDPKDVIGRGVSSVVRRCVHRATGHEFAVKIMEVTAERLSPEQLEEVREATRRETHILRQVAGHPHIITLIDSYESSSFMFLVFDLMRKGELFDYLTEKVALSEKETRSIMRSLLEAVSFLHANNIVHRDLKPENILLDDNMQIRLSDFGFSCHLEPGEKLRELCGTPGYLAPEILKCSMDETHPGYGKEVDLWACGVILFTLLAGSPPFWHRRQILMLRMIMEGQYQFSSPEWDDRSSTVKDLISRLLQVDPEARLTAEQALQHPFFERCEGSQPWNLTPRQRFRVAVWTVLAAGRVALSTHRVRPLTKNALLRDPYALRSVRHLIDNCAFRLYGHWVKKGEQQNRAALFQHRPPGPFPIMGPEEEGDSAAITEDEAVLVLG

[2] = target: T2, panel of 255 wild-type kinases (Homo sapiens, UniProt Q96PY6)
T2 sequence (Q96PY6 1-1258): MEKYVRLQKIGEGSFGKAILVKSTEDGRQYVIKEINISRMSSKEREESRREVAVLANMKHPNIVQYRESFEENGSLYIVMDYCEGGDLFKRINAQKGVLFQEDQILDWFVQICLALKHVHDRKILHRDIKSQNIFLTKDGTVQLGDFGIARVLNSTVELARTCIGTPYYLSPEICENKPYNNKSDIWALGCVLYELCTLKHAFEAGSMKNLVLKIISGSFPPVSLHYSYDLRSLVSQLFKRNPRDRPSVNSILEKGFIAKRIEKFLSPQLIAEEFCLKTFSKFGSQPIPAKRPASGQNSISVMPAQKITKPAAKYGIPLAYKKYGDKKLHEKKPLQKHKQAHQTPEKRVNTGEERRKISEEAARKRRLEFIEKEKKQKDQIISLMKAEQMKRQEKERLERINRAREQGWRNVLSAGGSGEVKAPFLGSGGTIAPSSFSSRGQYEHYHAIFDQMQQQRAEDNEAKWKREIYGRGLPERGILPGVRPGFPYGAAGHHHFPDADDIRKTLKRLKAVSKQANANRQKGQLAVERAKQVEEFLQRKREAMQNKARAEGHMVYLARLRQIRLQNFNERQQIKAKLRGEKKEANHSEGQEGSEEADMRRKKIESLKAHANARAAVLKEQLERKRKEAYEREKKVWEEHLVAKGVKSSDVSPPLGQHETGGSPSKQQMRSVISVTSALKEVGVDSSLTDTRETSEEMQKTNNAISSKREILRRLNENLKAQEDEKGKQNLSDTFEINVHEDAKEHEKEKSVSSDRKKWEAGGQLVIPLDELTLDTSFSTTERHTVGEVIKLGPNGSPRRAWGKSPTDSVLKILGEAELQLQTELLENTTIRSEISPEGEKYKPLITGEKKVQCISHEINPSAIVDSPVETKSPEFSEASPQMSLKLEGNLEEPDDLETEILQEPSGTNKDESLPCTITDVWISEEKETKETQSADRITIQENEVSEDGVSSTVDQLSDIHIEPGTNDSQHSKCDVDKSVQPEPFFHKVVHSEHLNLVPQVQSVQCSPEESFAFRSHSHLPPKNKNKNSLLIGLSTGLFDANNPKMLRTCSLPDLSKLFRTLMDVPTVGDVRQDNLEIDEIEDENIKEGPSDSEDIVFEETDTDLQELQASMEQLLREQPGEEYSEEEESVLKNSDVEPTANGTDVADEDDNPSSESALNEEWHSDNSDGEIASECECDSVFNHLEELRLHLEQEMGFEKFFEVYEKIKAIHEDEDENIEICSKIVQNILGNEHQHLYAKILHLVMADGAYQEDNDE

[3] = target: T3, panel of 255 wild-type kinases (Homo sapiens, UniProt Q9NRA0)
T3 sequence (Q9NRA0 1-654): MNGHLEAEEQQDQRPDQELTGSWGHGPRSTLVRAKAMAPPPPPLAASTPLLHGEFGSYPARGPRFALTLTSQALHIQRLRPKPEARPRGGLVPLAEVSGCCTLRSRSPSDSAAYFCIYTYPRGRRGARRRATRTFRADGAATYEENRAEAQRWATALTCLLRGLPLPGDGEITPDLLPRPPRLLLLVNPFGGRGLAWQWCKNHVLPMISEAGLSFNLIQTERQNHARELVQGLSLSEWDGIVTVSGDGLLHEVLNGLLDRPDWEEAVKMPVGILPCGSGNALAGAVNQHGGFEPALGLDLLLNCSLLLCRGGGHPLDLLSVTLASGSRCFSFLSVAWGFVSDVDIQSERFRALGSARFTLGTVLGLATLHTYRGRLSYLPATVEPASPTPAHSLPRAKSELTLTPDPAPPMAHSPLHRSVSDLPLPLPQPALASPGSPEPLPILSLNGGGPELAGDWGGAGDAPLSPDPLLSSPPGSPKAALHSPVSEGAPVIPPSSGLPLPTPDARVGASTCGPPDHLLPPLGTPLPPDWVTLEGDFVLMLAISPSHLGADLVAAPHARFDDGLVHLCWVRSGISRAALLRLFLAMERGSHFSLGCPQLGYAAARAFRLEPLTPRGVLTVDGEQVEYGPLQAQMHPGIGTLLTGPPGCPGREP

[4] = kinase PHKG2, 1 µmol/L single concentration, ref DOI: 10.1371/journal.pone.0092146
[5] = NEK1, 1 µmol/L single concentration, ref DOI: 10.1371/journal.pone.0092146
[6] = kinase SPHK2, 1 µmol/L single concentration, ref DOI: 10.1371/journal.pone.0092146
[7] = kinase PHKG2, 1 µmol/L single concentration, ref DOI: 10.1158/1535-7163.MCT-18-0877
[8] = NEK1, 1 µmol/L single concentration, ref DOI: 10.1158/1535-7163.MCT-18-0877
[9] = kinase SPHK2, 1 µmol/L single concentration, ref DOI: 10.1158/1535-7163.MCT-18-0877

Row | Compound | %-inhibition at 1 µmol/L, PHKG2 [1, 4] [%] | %-inhibition, NEK1 [2, 5] [%] | %-inhibition at 1 µmol/L, SPHK2 [3, 6] [%] | %-inhibition at 1 µmol/L, PHKG2 [1, 7] [%] | %-inhibition, NEK1 [2, 8] [%] | %-inhibition at 1 µmol/L, SPHK2 [3, 9] [%] | other results
1 | CCCS(=O)(=O)Nc1ccc(F)c(C(=O)c2c[nH]c3ncc(-c4ccc(Cl)cc4)cc23)c1F [vemurafenib] | -4.37 | -2.74 | 8 |  |  |  | 
2 | CC(=O)Nc1cccc(-n2c(=O)n(C3CC3)c(=O)c3c(Nc4ccc(I)cc4F)n(C)c(=O)c(C)c32)c1 [trametinib] | 2.81 | -5 | -14 |  |  |  | 
3 | CCc1cc2c(cc1N1CCC(N3CCOCC3)CC1)C(C)(C)c1[nH]c3cc(C#N)ccc3c1C2=O [alectinib] |  |  |  | 75 | 5 | 1.74 | 
4 | CC(C)(C)c1nc(-c2cccc(NS(=O)(=O)c3c(F)cccc3F)c2F)c(-c2ccnc(N)n2)s1 [dabrafenib] | 2 | 24 | -14 |  |  |  | 
5 | CC#CC(=O)N1CCC[C@H]1c1nc(-c2ccc(C(=O)Nc3ccccn3)cc2)c2c(N)nccn12 [acalabrutinib] |  |  |  | 0.00605 | -7.46 | 7 | 
6 | O=C(c1ccc(F)c(F)c1Nc1ccc(I)cc1F)N1CC(O)([C@@H]2CCCCN2)C1 [cobimetinib] |  |  |  | 2.22 | 4.29 | 11 | 
7 | C=CC(=O)Nc1cc(Nc2nccc(-c3cn(C)c4ccccc34)n2)c(OC)cc1N(C)CCN(C)C [osimertinib] |  |  |  | 11 | 2.43 | 15 | 
8 | Cc1cc(Nc2ncc(Cl)c(Nc3ccccc3S(=O)(=O)C(C)C)n2)c(OC(C)C)cc1C1CCNCC1 [ceritinib] |  |  |  | 83 | -1.68 | 6.4 | 
9 | CO[C@@H]1[C@H](N(C)C(=O)c2ccccc2)C[C@H]2O[C@]1(C)n1c3ccccc3c3c4c(c5c6ccccc6n2c5c31)C(=O)NC4 [midostaurin] |  |  |  | 67 | 13 | 12 | 
10 | COc1cc(N2CCC(N3CCN(C)CC3)CC2)ccc1Nc1ncc(Cl)c(Nc2ccccc2P(C)(C)=O)n1 [brigatinib] |  |  |  |  |  |  | %-inhibition at 1 µmol/L, PHKG2 [1]: 96%; %-inhibition, NEK1 [2]: 8%; %-inhibition at 1 µmol/L, SPHK2 [3]: 11%
11 | C=CC(=O)N1CCC[C@@H](n2nc(-c3ccc(Oc4ccccc4)cc3)c3c(N)ncnc32)C1 [ibrutinib] |  |  |  | 0.816 | 3.73 | 10 | 
12 | C[C@@H](Oc1cc(-c2cnn(C3CCNCC3)c2)cnc1N)c1c(Cl)ccc(F)c1Cl [crizotinib] | 10 | 2.24 | 8 |  |  |  | 
